This note sets out measurements from ChEMBL document CHEMBL1128615, “Design, synthesis and evaluation of novel bismustard cross-linked lexitropsins” (1995).

For one test, the system named is KB. In words: Compound was evaluated for cytotoxicity measured as TD50. The test is classed as functional. To be noted: Homo sapiens, read-out: TD50 (the source's name).
Test [1] has as its system Nucleic Acid. Put plainly: Compound was evaluated for binding affinity to alternating poly(dA)-poly(dT) polymer using ethidium displacement assay. The format is nucleic-acid assay.
The test system of test [2] is Nucleic Acid. In words: Compound was evaluated for its binding affinity to homo poly(dA-dT) polymer using ethidium displacement assay. The format is nucleic-acid assay.
The subject of test [3] is Nucleic Acid. In words: Compound was evaluated for its ability of alkylation of DNA. The test is classed as nucleic-acid assay. To be noted: Bos taurus.
In test [4] the test system is Nucleic Acid. In words: Compound was evaluated for binding affinity to calf thymus DNA using ethidium displacement assay. The format is nucleic-acid assay. As to conditions: Bos taurus.
In test [5] the test system is Nucleic Acid. In words: Compound was evaluated for binding affinity to poly(dG-dC) polymer using ethidium displacement assay. The format is nucleic-acid assay.
The subject of test [6] is Nucleic Acid. Put plainly: Binding affinity to alternating poly(dA)-poly(dT) polymer using ethidium displacement assay. The test is classed as nucleic-acid assay. As to conditions: Bos taurus.
The test system of test [7] is Nucleic Acid. Put plainly: Compound was evaluated for binding affinity to homo poly(dA-dT) polymer using ethidium displacement assay. The format is nucleic-acid assay.

Structures are written as SMILES.

Regarding `CN(C)CCCNC(=O)c1cc(NC(=O)c2cc(NC(=O)c3ccc(N(CCCl)CCCl)cc3)cn2CCCCCCCCn2cc(NC(=O)c3ccc(N(CCCl)CCCl)cc3)cc2C(=O)Nc2cc(C(=O)NCCCN(C)C)n(C)c2)cn1C`, the CC50 in the test on KB is > 79.2 µM. Besides, the C50 was 0.535 µM in the test on Nucleic Acid [1], 0.802 µM with Nucleic Acid [2], 1.02 µM in the test with Nucleic Acid [4] and 1.64 µM in the test with Nucleic Acid [5]. In the test on Nucleic Acid [3], this compound registered an Alkylation of 7.1%. For the same compound, the Kb in the test with Nucleic Acid [4] came to 5.6e+06 M⁻¹; in the test on Nucleic Acid [5], 1.25e+07 M⁻¹.

In the case of `CN(C)CCCNC(=O)c1cc(NC(=O)c2cc(NC(=O)c3ccc(N(CCCl)CCCl)cc3)cn2CCCCCCCCCCCCn2cc(NC(=O)c3ccc(N(CCCl)CCCl)cc3)cc2C(=O)Nc2cc(C(=O)NCCCN(C)C)n(C)c2)cn1C`, the CC50 with KB came to 36.3 µM. Moreover, the C50 in the test on Nucleic Acid [1] stood at 1.31 µM; in the test with Nucleic Acid [2], 1.06 µM; in the test on Nucleic Acid [4], 3.17 µM; in the test with Nucleic Acid [5], 2.11 µM. Further, the Kb in the test with Nucleic Acid [4] worked out at 1.73e+06 M⁻¹; in the test on Nucleic Acid [5] it was 9.66e+06 M⁻¹.

Regarding `CN(C)CCCNC(=O)c1cc(NC(=O)c2cc(NC(=O)c3ccc(N(CCCl)CCCl)cc3)cn2CCCCCCCCCn2cc(NC(=O)c3ccc(N(CCCl)CCCl)cc3)cc2C(=O)Nc2cc(C(=O)NCCCN(C)C)n(C)c2)cn1C`, the CC50 in the test on KB was > 79.2 µM. In addition, the C50 was 1.31 µM in the test on Nucleic Acid [1], 1.3 µM in the test on Nucleic Acid [2], 1.74 µM in the test with Nucleic Acid [4] and 1.97 µM in the test with Nucleic Acid [5]. Besides, the Alkylation in the test on Nucleic Acid [3] stood at 6.7%. Moreover, the Kb in the test with Nucleic Acid [4] worked out at 3.2e+06 M⁻¹; in the test with Nucleic Acid [5] it was 1.04e+07 M⁻¹.

On to `CN(C)CCCNC(=O)c1cc(NC(=O)c2cc(NC(=O)c3ccc(N(CCCl)CCCl)cc3)cn2C)cn1C`, for which, in the test with KB, the CC50 worked out at 5 µM. The Kb with Nucleic Acid [6] came out at 6.06e+06 M⁻¹; with Nucleic Acid [7] it was 3.41e+06 M⁻¹; in the test with Nucleic Acid [4], 1.07e+06 M⁻¹; in the test with Nucleic Acid [5], 1.81e+06 M⁻¹. Further, the C50 came out at 0.199 µM in the test with Nucleic Acid [1], 2.85 µM with Nucleic Acid [2], 5.1 µM in the test on Nucleic Acid [4] and 11 µM in the test on Nucleic Acid [5]. The Alkylation in the test with Nucleic Acid [3] turned out to be 11%.

For `CN(C)CCCNC(=O)c1cc(NC(=O)c2cc(NC(=O)c3ccc(N(CCCl)CCCl)cc3)cn2CCCCCCCCCCn2cc(NC(=O)c3ccc(N(CCCl)CCCl)cc3)cc2C(=O)Nc2cc(C(=O)NCCCN(C)C)n(C)c2)cn1C`, the CC50 with KB was determined as 44.2 µM. In addition, the C50 in the test with Nucleic Acid [1] came to 1.1 µM; in the test on Nucleic Acid [2], 1.78 µM; in the test on Nucleic Acid [4], 2.02 µM; in the test with Nucleic Acid [5], 1.96 µM. Besides, the Alkylation in the test on Nucleic Acid [3] was determined as 7.3%. Moreover, the Kb in the test on Nucleic Acid [4] stood at 2.74e+06 M⁻¹; with Nucleic Acid [5], 1.04e+07 M⁻¹.

As to `CN(C)CCCNC(=O)c1cc(NC(=O)c2cc(NC(=O)c3ccc(N(CCCl)CCCl)cc3)cn2CCCCCCCCCCCn2cc(NC(=O)c3ccc(N(CCCl)CCCl)cc3)cc2C(=O)Nc2cc(C(=O)NCCCN(C)C)n(C)c2)cn1C`, in the test on KB, the CC50 was 35.8 µM. Further, the C50 is 1.2 µM with Nucleic Acid [1], 1.1 µM in the test on Nucleic Acid [2], 1.63 µM in the test on Nucleic Acid [4] and 2.46 µM with Nucleic Acid [5]. In the test on Nucleic Acid [3], the Alkylation is 12%. In addition, the Kb stood at 3.42e+06 M⁻¹ with Nucleic Acid [4] and 8.25e+06 M⁻¹ with Nucleic Acid [5].
